According to US20210181109A1 (FUJIFILM Corporation, priority 2018, published 2021):

Key:
[1] = Average score of NAC and NAL depletion and prediction of skin allergenicity, UV method; settings: single substance, Reference (UV method)
Method in brief: (§1)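 Score is the mean of NAC and NAL depletion percentages, rounded at the second decimal place. Test substances classed as allergenic (S) or non-allergenic (NS) from depletion of NAC, NAL, or their average score.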

[2] = known values, LLNA-test-based classification; − for non-allergenic substances; cited from earlier work
[3] = NAC depletion percent, HPLC-fluorescence detection; settings: single substance, test substance solution 1 mmol/L, fluorescence method
Method in brief: (§2)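 NAC at 5 μmol/L in pH 8.0 phosphate buffer reacted with test substance (1 mmol/L stock in water, acetonitrile, acetone or 5% DMSO/acetonitrile) 24 h at 25 °C in the dark, n=3. Stopped with TFA (0.5% final); unreacted NAC quantified by HPLC, depletion percent calculated against blank without test substance.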

[4] = NAC depletion percent, HPLC-UV detection (281 nm); settings: single substance, test substance solution 1 mmol/L, Reference (UV method)
Method in brief: as §2

[5] = NAL depletion percent, HPLC-UV detection (281 nm); settings: single substance, test substance solution 1 mmol/L, Reference (UV method)
Method in brief: (§3)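 NAL (5 μmol/L, pH 10.2 phosphate buffer) reacted with test substance (1 mmol/L stock in water, acetonitrile, acetone or 5% DMSO/acetonitrile) for 24 h at 25 °C in the dark; stopped with TFA to 0.5%. Unreacted NAL quantified by HPLC (UV or fluorescence), n=3; depletion % relative to substance-free blank.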

[6] = NAL depletion percent, HPLC-fluorescence detection; settings: single substance, test substance solution 1 mmol/L, fluorescence method
Method in brief: as §3

[7] = Average score of NAC and NAL depletion and prediction of skin allergenicity, fluorescence method; settings: single substance, fluorescence method
Method in brief: as §1

[8] = test substance solution 1 mmol/L

Vinylpyridine
Prediction result ([1]; criterion average score […]): S (S represents as being an allergenic substance) | Average score [1, 8]: 12.9% | EC3 (%) [2]: 1.6% | NAC depletion (%) [3]: 19.8% | NAC depletion (%) [4]: 18.1% | NAL depletion (%) [5]: 7.7% | NAL depletion (%) [6]: 3.6% | Prediction result ([7]; criterion average score […]): S (S represents as being an allergenic substance) | Average score [7, 8]: 11.7%
